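Interpolation was linear, between the two tested concentrations surrounding the appropriate level; five concentrations were tested over 48 hours in 96-well plates. Abbreviation: GI50, concentration required for 50% inhibition of growth.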 Calls of active or inactive are those of the source. No stated cut-off is given here; in the data, active = GI50 up to about 1.1 µM and inactive = higher.
Experiments:
Experiment in all cases: NCI anticancer screen, dose series, 48 h
SK-OV-3 = tested on: SK-OV-3
MCF7 = tested on: MCF7
NCI-H23 = tested on: NCI-H23
RPMI-8226 = tested on: RPMI-8226
NCI-H226 = tested on: NCI-H226
MDA-N = tested on: MDA-N
A549 = tested on: A549
KM12 = tested on: KM12
TK-10 = tested on: TK-10
NCI-H460 = tested on: NCI-H460
OVCAR-4 = tested on: OVCAR-4
CCRF-CEM = tested on: CCRF-CEM
COLO 205 = tested on: COLO 205
Hs-578T = tested on: Hs-578T
SF-295 = tested on: SF-295
SNB-75 = tested on: SNB-75

SMILES	GI50 (SK-OV-3)	GI50 (MCF7)	GI50 (NCI-H23)	GI50 (RPMI-8226)	GI50 (NCI-H226)	GI50 (MDA-N)	GI50 (A549)	GI50 (KM12)	GI50 (TK-10)	GI50 (NCI-H460)	GI50 (OVCAR-4)	GI50 (CCRF-CEM)	GI50 (COLO 205)	GI50 (Hs-578T)	GI50 (SF-295)	GI50 (SNB-75)
COc1cc(/C=C(\C#N)c2nc3ccccc3o2)ccc1O	17.7 µM (inactive)	10 µM (inactive)	24.2 µM (inactive)	21 µM (inactive)	15.4 µM (inactive)	23 µM (inactive)	17.8 µM (inactive)	17.6 µM (inactive)	24.4 µM (inactive)	15 µM (inactive)	11.2 µM (inactive)	26.3 µM (inactive)	16.9 µM (inactive)	23.1 µM (inactive)	17.6 µM (inactive)	–
N#Cc1c(N)sc2c1-c1ccccc1OC2	38.2 µM (inactive)	40 µM (inactive)	45.4 µM (inactive)	33.6 µM (inactive)	93.5 µM (inactive)	21.1 µM (inactive)	32.4 µM (inactive)	38.2 µM (inactive)	32.1 µM (inactive)	36.4 µM (inactive)	26.5 µM (inactive)	12.4 µM (inactive)	42.8 µM (inactive)	–	–	–
Cc1c(-c2ccccc2)[nH]c2cc(Cl)ccc2c1=O	39.4 µM (inactive)	37 µM (inactive)	36.3 µM (inactive)	> 100 µM (inactive)	21.1 µM (inactive)	10.2 µM (inactive)	1.96 µM (inactive)	0.74 µM (active)	38 µM (inactive)	0.631 µM (active)	22.9 µM (inactive)	> 100 µM (inactive)	–	14.8 µM (inactive)	–	–
CCC(C(=O)c1ccc(OC)c(OC)c1)N(C(=O)C(F)(F)F)C(C)c1ccccc1 (stereo not drawn)	> 100 µM (inactive)	> 100 µM (inactive)	–	> 100 µM (inactive)	–	> 100 µM (inactive)	> 100 µM (inactive)	–	> 100 µM (inactive)	> 100 µM (inactive)	–	> 100 µM (inactive)	> 100 µM (inactive)	–	> 100 µM (inactive)	–
CCOC(=O)/C=C/c1nc(C#N)c(N)o1	> 100 µM (inactive)	> 100 µM (inactive)	–	> 100 µM (inactive)	–	> 100 µM (inactive)	> 100 µM (inactive)	> 100 µM (inactive)	> 100 µM (inactive)	–	–	> 100 µM (inactive)	–	> 100 µM (inactive)	–	> 100 µM (inactive)
COc1ccc(C2C=C(c3ccc(C)cc3)N(c3ccc(OC)cc3[N+](=O)[O-])C3C(=O)OC(=O)C23)c(OC)c1 (stereo not drawn)	25 µM (inactive)	42.5 µM (inactive)	52.4 µM (inactive)	22 µM (inactive)	31.5 µM (inactive)	–	37 µM (inactive)	7.8 µM (inactive)	47.5 µM (inactive)	71.3 µM (inactive)	62.5 µM (inactive)	35.1 µM (inactive)	43.1 µM (inactive)	22.5 µM (inactive)	43.9 µM (inactive)	20.2 µM (inactive)
O=C(NC1C(=O)NC(CCc2ccccc2)NC1=O)OCc1ccccc1 (stereo not drawn)	–	> 100 µM (inactive)	> 100 µM (inactive)	> 100 µM (inactive)	> 100 µM (inactive)	–	> 100 µM (inactive)	> 100 µM (inactive)	> 100 µM (inactive)	> 100 µM (inactive)	> 100 µM (inactive)	> 100 µM (inactive)	> 100 µM (inactive)	–	> 100 µM (inactive)	> 100 µM (inactive)
CN1CCN(c2ccc3c(c2)NCC(=O)N3)CC1	> 100 µM (inactive)	–	> 100 µM (inactive)	> 100 µM (inactive)	> 100 µM (inactive)	–	> 100 µM (inactive)	> 100 µM (inactive)	> 100 µM (inactive)	> 100 µM (inactive)	> 100 µM (inactive)	> 100 µM (inactive)	> 100 µM (inactive)	> 100 µM (inactive)	> 100 µM (inactive)	> 100 µM (inactive)
C=C1C(=O)O[C@H]2C/C(C=O)=C\[C@H]3O[C@H]3/C(COC(=O)C(C)C)=C/CC12 (stereo partly drawn)	–	5.21 µM (inactive)	4.97 µM (inactive)	2.52 µM (inactive)	21.4 µM (inactive)	2.91 µM (inactive)	16.9 µM (inactive)	5.46 µM (inactive)	11.8 µM (inactive)	10.5 µM (inactive)	–	1.83 µM (inactive)	1.93 µM (inactive)	2.89 µM (inactive)	25.6 µM (inactive)	–
COc1c(C(=O)/C(=N/Nc2cccc(Cl)c2)C(C)=O)c(O)c(OC)c2occc12	> 100 µM (inactive)	> 100 µM (inactive)	> 100 µM (inactive)	80.9 µM (inactive)	> 100 µM (inactive)	> 100 µM (inactive)	> 100 µM (inactive)	> 100 µM (inactive)	> 100 µM (inactive)	65.8 µM (inactive)	–	88.1 µM (inactive)	> 100 µM (inactive)	70 µM (inactive)	58.1 µM (inactive)	13 µM (inactive)
CCOC(=O)Cn1nnc2cc(Nc3c(C)[n+]([O-])c4cc(F)c(OCC)cc4[n+]3[O-])ccc21	38.6 µM (inactive)	> 100 µM (inactive)	> 100 µM (inactive)	> 100 µM (inactive)	> 100 µM (inactive)	–	–	> 100 µM (inactive)	24.9 µM (inactive)	> 100 µM (inactive)	> 100 µM (inactive)	> 100 µM (inactive)	–	41.8 µM (inactive)	38.3 µM (inactive)	–
Cn1c(CO)ccc1-c1ccc(-c2ccc(CO)[se]2)[se]1	> 50.4 µM (inactive)	0.251 µM (active)	16.3 µM (inactive)	2.39 µM (inactive)	0.408 µM (active)	–	15.4 µM (inactive)	21.4 µM (inactive)	0.0376 µM (active)	18.4 µM (inactive)	0.578 µM (active)	1.8 µM (inactive)	1.77 µM (inactive)	> 100 µM (inactive)	> 76.4 µM (inactive)	> 100 µM (inactive)
CC(=O)OC(C)(C)CCC(=O)[C@](C)(O)[C@H]1[C@H](O)C[C@@]2(C)[C@@H]3CC=C4C(C)=C(OC5OC(CO)C(O)C(O)C5O)C(=O)C[C@@H]4[C@]3(C)C(=O)C[C@]12C (stereo partly drawn)	> 100 µM (inactive)	> 100 µM (inactive)	> 100 µM (inactive)	–	> 100 µM (inactive)	> 100 µM (inactive)	> 100 µM (inactive)	> 100 µM (inactive)	> 100 µM (inactive)	> 100 µM (inactive)	> 100 µM (inactive)	> 100 µM (inactive)	> 100 µM (inactive)	–	> 100 µM (inactive)	> 100 µM (inactive)
CC(=O)c1ccc(NCN2C(=O)c3ccccc3C2=O)cc1	> 100 µM (inactive)	> 100 µM (inactive)	> 100 µM (inactive)	66.5 µM (inactive)	–	> 100 µM (inactive)	> 100 µM (inactive)	> 100 µM (inactive)	> 100 µM (inactive)	> 100 µM (inactive)	> 100 µM (inactive)	> 100 µM (inactive)	> 100 µM (inactive)	> 100 µM (inactive)	> 100 µM (inactive)	30.5 µM (inactive)
CCOC(=O)C1C(=O)C=C(c2cc(C)ccc2O)CC1c1cccc(Cl)c1 (stereo not drawn)	20 µM (inactive)	19.5 µM (inactive)	26.4 µM (inactive)	18.7 µM (inactive)	24.5 µM (inactive)	6.04 µM (inactive)	19 µM (inactive)	16.3 µM (inactive)	20.3 µM (inactive)	26.1 µM (inactive)	17.5 µM (inactive)	19.8 µM (inactive)	18.5 µM (inactive)	21 µM (inactive)	23.9 µM (inactive)	–
C=C1C(=O)O[C@H]2C1C[C@H](O)[C@@]1(C)OC1CC[C@@]1(C)O[C@H]21 (stereo partly drawn)	61.8 µM (inactive)	15.4 µM (inactive)	19.5 µM (inactive)	6.65 µM (inactive)	–	–	> 100 µM (inactive)	25.1 µM (inactive)	19.8 µM (inactive)	> 100 µM (inactive)	13.6 µM (inactive)	2.61 µM (inactive)	4.88 µM (inactive)	37.3 µM (inactive)	> 100 µM (inactive)	80.4 µM (inactive)
NS(=O)(=O)c1ccc(-n2c(-c3cccs3)nc3ccc(I)cc3c2=O)cc1	22.6 µM (inactive)	23.3 µM (inactive)	25.8 µM (inactive)	–	27.4 µM (inactive)	33.3 µM (inactive)	18.7 µM (inactive)	24.1 µM (inactive)	25.4 µM (inactive)	25.5 µM (inactive)	24.7 µM (inactive)	–	19.7 µM (inactive)	–	25.4 µM (inactive)	37.7 µM (inactive)
COc1ccc(-c2oc3cc(OC(C)=O)cc(OC(C)=O)c3c(=O)c2OC)cc1	28.8 µM (inactive)	20.7 µM (inactive)	–	12.5 µM (inactive)	–	12.7 µM (inactive)	20.7 µM (inactive)	–	21.8 µM (inactive)	16.9 µM (inactive)	–	18.2 µM (inactive)	15.9 µM (inactive)	–	15.9 µM (inactive)	–
NC(CCCCCP(=O)(O)O)C(=O)O (stereo not drawn) [AP-7]	> 100 µM (inactive)	–	> 100 µM (inactive)	> 100 µM (inactive)	–	> 100 µM (inactive)	> 100 µM (inactive)	> 100 µM (inactive)	> 100 µM (inactive)	> 100 µM (inactive)	> 100 µM (inactive)	> 100 µM (inactive)	> 100 µM (inactive)	> 100 µM (inactive)	> 100 µM (inactive)	> 100 µM (inactive)
Nc1ccccc1NC(=O)c1ccc(CNC(=O)OCc2cccnc2)cc1 [ENTINOSTAT]	4.9 µM (inactive)	0.845 µM (active)	1.38 µM (inactive)	0.158 µM (active)	0.501 µM (active)	0.778 µM (active)	3 µM (inactive)	> 23.4 µM (inactive)	0.92 µM (active)	0.558 µM (active)	–	0.757 µM (active)	1.17 µM (inactive)	3.31 µM (inactive)	2.02 µM (inactive)	4.89 µM (inactive)

From ChEMBL document CHEMBL1201862, “PubChem BioAssay data set” (2004)
